Each compound was assayed against T1, human OX2 receptor (Homo sapiens, UniProt O43614) (assay: Measurement of orexin type 2 receptor agonist activity (calcium fluorescence, Fluo-4 AM, FDSS)). Conditions: compound at 3 μM; CHO cells forcibly expressing human OX2 receptor; DMSO = 0%, 10 nM orexin A (human) = 100%.
T1 construct: expressed in transfected cells
T1 sequence (O43614 1-444): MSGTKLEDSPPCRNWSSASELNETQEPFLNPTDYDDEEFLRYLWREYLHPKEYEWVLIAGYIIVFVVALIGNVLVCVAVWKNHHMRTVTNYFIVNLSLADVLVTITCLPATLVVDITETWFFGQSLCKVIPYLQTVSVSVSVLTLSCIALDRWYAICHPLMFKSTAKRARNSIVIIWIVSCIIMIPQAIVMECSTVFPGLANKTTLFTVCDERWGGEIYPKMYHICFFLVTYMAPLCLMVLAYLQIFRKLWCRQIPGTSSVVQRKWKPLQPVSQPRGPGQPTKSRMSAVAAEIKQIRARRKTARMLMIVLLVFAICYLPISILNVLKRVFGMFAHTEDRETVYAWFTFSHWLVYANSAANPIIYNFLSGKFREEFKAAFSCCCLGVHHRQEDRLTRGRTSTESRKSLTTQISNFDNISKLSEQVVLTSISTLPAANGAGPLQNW
Assay type: cell-based
Summary of the method: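 CHO-K1 cells stably expressing human OX2 receptor (residues 1-444) loaded with Fluo-4 AM in HBSS/20 mM HEPES/0.1% BSA with probenecid, 30 min at 37° C. then 30 min at room temperature. After compound addition, calcium fluorescence read for 1 min 40 s; activity (%) scaled to DMSO (0%) and 10 nM orexin A (100%).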

| SMILES | OX2R agonist activity (3 μM, %) [%] |
| --- | --- |
| Cc1cnc([C@@H]2CC(N3CC[C@H](NS(=O)(=O)CF)C3)=NO2)c(-c2c(F)cc(F)cc2F)c1 [Example 56, 1-fluoro-N-[(3S)-1-{(5S)-5-[5-methyl-3-(2,4,6-trifluorophenyl)pyridin-2-yl]-4,5-dihydro-1,2-oxazol-3-yl}pyrrolidin-3-yl]methanesulfonamide] | 92 |
| Cc1cnc([C@@H]2CC(N3C[C@H](F)[C@H](NS(C)(=O)=O)C3)=NO2)c(-c2c(F)cc(F)cc2F)c1 [Example 57, N-[(3R,4S)-4-fluoro-1-{(5S)-5-[5-methyl-3-(2,4,6-trifluorophenyl)pyridin-2-yl]-4,5-dihydro-1,2-oxazol-3-yl}pyrrolidin-3-yl]methanesulfonamide] | 105 |
| Cc1cnc(C2(C(F)F)CC(N3C[C@@H](NS(C)(=O)=O)C(F)(F)C3)=NO2)c(-c2c(F)cccc2F)c1 (stereo partly drawn) [Example 59, N-[(3R)-1-{5-(difluoromethyl)-5-[3-(2,6-difluorophenyl)-5-methylpyridin-2-yl]-4,5-dihydro-1,2-oxazol-3-yl}-4,4-difluoropyrrolidin-3-yl]methanesulfonamide] | 101 |
| Cc1cnc(C2CC(N3C[C@@H](NS(C)(=O)=O)C(F)(F)C3)=NO2)c(-c2c(F)cccc2Cl)c1 (stereo partly drawn) [Example 61, N-[(3R)-1-{5-[3-(2-chloro-6-fluorophenyl)-5-methylpyridin-2-yl]-4,5-dihydro-1,2-oxazol-3-yl}-4,4-difluoropyrrolidin-3-yl]methanesulfonamide] | 98 |
| Cc1cnc([C@@H]2CC(N3CC(F)(F)C(C)(NS(C)(=O)=O)C3)=NO2)c(-c2c(F)cc(F)cc2F)c1 (stereo partly drawn) [Example 64, N-(4,4-difluoro-3-methyl-1-{(5S)-5-[5-methyl-3-(2,4,6-trifluorophenyl)pyridin-2-yl]-4,5-dihydro-1,2-oxazol-3-yl}pyrrolidin-3-yl)methanesulfonamide] | 100 |
| Cc1cnc([C@@H]2CC(N3C[C@@H](F)[C@H](NS(=O)(=O)CF)C3)=NO2)c(-c2c(F)cccc2F)c1 [Example 65, N-[(3R,4R)-1-{(5S)-5-[3-(2,6-difluorophenyl)-5-methylpyridin-2-yl]-4,5-dihydro-1,2-oxazol-3-yl}-4-fluoropyrrolidin-3-yl]-1-fluoromethanesulfonamide] | 97 |
| Cc1cnc([C@@H]2CC(N3CC[C@H](NS(=O)(=O)C(F)F)C3)=NO2)c(-c2c(F)cc(F)cc2F)c1 [Example 66, 1,1-difluoro-N-[(3S)-1-{(5S)-5-[5-methyl-3-(2,4,6-trifluorophenyl)pyridin-2-yl]-4,5-dihydro-1,2-oxazol-3-yl}pyrrolidin-3-yl]methanesulfonamide] | 99 |
| O=S(=O)(N[C@@H]1CN(C2=NOC(c3ncc(F)cc3-c3c(F)cccc3F)C2)CC1(F)F)C1CC1 (stereo partly drawn) [Example 67, N-[(3R)-1-{5-[3-(2,6-difluorophenyl)-5-fluoropyridin-2-yl]-4,5-dihydro-1,2-oxazol-3-yl}-4,4-difluoropyrrolidin-3-yl]cyclopropanesulfonamide] | 98 |
| CS(=O)(=O)N[C@@H]1CN(C2=NOC(c3ncc(F)cc3-c3c(F)cccc3F)C2)CC1(F)F (stereo partly drawn) [Example 69, N-[(3R)-1-{5-[3-(2,6-difluorophenyl)-5-fluoropyridin-2-yl]-4,5-dihydro-1,2-oxazol-3-yl}-4,4-difluoropyrrolidin-3-yl]methanesulfonamide] | 95 |
| COCC1(NS(C)(=O)=O)CCN(C2=NO[C@H](c3ncc(C)cc3-c3c(F)cccc3F)C2)C1 (stereo partly drawn) [Example 73, N-[1-{(5S)-5-[3-(2,6-difluorophenyl)-5-methylpyridin-2-yl]-4,5-dihydro-1,2-oxazol-3-yl}-3-(methoxymethyl)pyrrolidin-3-yl]methanesulfonamide] | 102 |
| Cc1cnc([C@@H]2CC(N3C[C@@H](F)[C@H](NS(=O)(=O)N(C)C)C3)=NO2)c(-c2c(F)cc(F)cc2F)c1 [Example 77, N′-[(3R,4R)-4-fluoro-1-{(5S)-5-[5-methyl-3-(2,4,6-trifluorophenyl)pyridin-2-yl]-4,5-dihydro-1,2-oxazol-3-yl}pyrrolidin-3-yl]-N,N-dimethylsulfuric diamide] | 102 |

Results, then the compound that gave them:

| OX2R agonist activity (3 μM, %) [%] | SMILES |
| --- | --- |
| 103 | Cc1cnc([C@@H]2CC(N3C[C@@H](NS(=O)(=O)CF)C(F)(F)C3)=NO2)c(-c2c(F)cc(F)cc2F)c1 [Example 58, N-[(3R)-4,4-difluoro-1-{(5S)-5-[5-methyl-3-(2,4,6-trifluorophenyl)pyridin-2-yl]-4,5-dihydro-1,2-oxazol-3-yl}pyrrolidin-3-yl]-1-fluoromethanesulfonamide] |
| 105 | Cc1cnc([C@@H]2CC(N3C[C@@H](NS(=O)(=O)C(F)F)C(F)(F)C3)=NO2)c(-c2c(F)cc(F)cc2F)c1 [Example 60, N-[(3R)-4,4-difluoro-1-{(5S)-5-[5-methyl-3-(2,4,6-trifluorophenyl)pyridin-2-yl]-4,5-dihydro-1,2-oxazol-3-yl}pyrrolidin-3-yl]-1,1-difluoromethanesulfonamide] |
| 101 | Cc1cnc([C@@H]2CC(N3C[C@@H](C)[C@H](NS(C)(=O)=O)C3)=NO2)c(-c2c(F)cc(F)cc2F)c1 [Example 63, N-[(3S,4R)-4-methyl-1-{(5S)-5-[5-methyl-3-(2,4,6-trifluorophenyl)pyridin-2-yl]-4,5-dihydro-1,2-oxazol-3-yl}pyrrolidin-3-yl]methanesulfonamide] |
| 104 | Cc1cnc([C@@H]2CC(N3C[C@H](F)[C@H](NS(=O)(=O)CF)C3)=NO2)c(-c2c(F)cccc2F)c1 [Example 68, N-[(3R,4S)-1-{(5S)-5-[3-(2,6-difluorophenyl)-5-methylpyridin-2-yl]-4,5-dihydro-1,2-oxazol-3-yl}-4-fluoropyrrolidin-3-yl]-1-fluoromethanesulfonamide] |
| 94 | CS(=O)(=O)N[C@@H]1CN(C2=NOC(c3ncc(F)cc3-c3c(F)cc(F)cc3F)C2)CC1(F)F (stereo partly drawn) [Example 70, N-[(3R)-4,4-difluoro-1-{5-[5-fluoro-3-(2,4,6-trifluorophenyl)pyridin-2-yl]-4,5-dihydro-1,2-oxazol-3-yl}pyrrolidin-3-yl]methanesulfonamide] |
| 58 | Cc1cnc([C@@H]2CC(O[C@H]3C[C@H](NS(C)(=O)=O)C3)=NO2)c(-c2c(F)cc(F)cc2F)c1 [Example 74, N-[(1s,3r)-3-({(5S)-5-[5-methyl-3-(2,4,6-trifluorophenyl)pyridin-2-yl]-4,5-dihydro-1,2-oxazol-3-yl}oxy)cyclobutyl]methanesulfonamide] |
| 108 | Cc1cnc(C2(C)CC(N3C[C@@H](NS(C)(=O)=O)C(F)(F)C3)=NO2)c(-c2c(F)cccc2F)c1 (stereo partly drawn) [Example 76, N-[(3R)-1-{5-[3-(2,6-difluorophenyl)-5-methylpyridin-2-yl]-5-methyl-4,5-dihydro-1,2-oxazol-3-yl}-4,4-difluoropyrrolidin-3-yl]methanesulfonamide] |
| 102 | Cc1cnc([C@@H]2CC(N3C[C@@H](F)[C@H](NS(=O)(=O)N(C)C)C3)=NO2)c(-c2c(F)cccc2F)c1 [Example 78, N′-[(3R,4R)-1-{(5S)-5-[3-(2,6-difluorophenyl)-5-methylpyridin-2-yl]-4,5-dihydro-1,2-oxazol-3-yl}-4-fluoropyrrolidin-3-yl]-N,N-dimethylsulfuric diamide] |

Reference: US20240217957A1, “HETEROCYCLIC COMPOUND AND USE THEREOF” (TAKEDA PHARMACEUTICAL COMPANY LIMITED, priority 2022, published 2024)
